Results taken from patent US8809377B2, “Deubiquitinase inhibitors and methods for use of the same” (The Regents of the University of Michigan, priority 2010, dated 2014).

What was measured:
cellular DUB activity = experiment: DUB activity of lysates from treated cells (Ub-AMC, Ub chain disassembly); type: cell-based
Procedure: Cells were lysed in ice cold DUB buffer containing 50 mM Tris-HCl, pH 7.5, 0.5% NP-40, 5 mM MgCl2, 150 mM NaCl and 1 mM phenylmethylsulfonylfluoride. Briefly, 5 μg of clarified lysate from untreated or treated cells was incubated with 500 nM Ub-AMC in a 100 μL reaction volume at 37° C. and the release of AMC fluorescence was recorded at ex/em 380/480 using a spectrofluorometer. USP9x was immunoprecipitated from 500 μg of cell lysate and incubated in DUB buffer containing NEM, WP1130 or DMSO in a 100 μL reaction volume for 30 min. The reaction was initiated by the addition of 500 nM Ub-AMC and the release of AMC-fluorescence was recorded.
In vitro disassembly of purified polyubiquitin chains (K-48/K-63 linked) was performed as previously described. Five μg of lysate from untreated or WP1130 treated cells were prepared in DUB buffer and incubated with K48- or K-63 linked chains (1 μg) for 10 min at 37° C. The extent of chain disassembly was assessed by ubiquitin immunoblotting.
Inhibition of cellular deubiquitinases could lead to an increase in high molecular weight ubiquitinated proteins in the absence of proteasome inhibition. […] To directly assess the impact of WP1130 on DUB activity in treated cells, cell lysates from control and treated cells were incubated with ubiquitin-AMC and fluorescence generated as a consequence of substrate cleavage was measured as an indicator of DUB activity.
The effect of WP1130 treatment on in vitro deubiquitination/disassembly of purified K48-linked or K63-linked polyubiquitin chains was evaluated. Lysates from WP1130 treated (2 hr) or untreated cells were incubated with 1 μg of unanchored polyubiquitin chains for 5, 10 and 15 min at 37° C.

USP5 = target: T1, USP5 (Homo sapiens, UniProt P45974); experiment: HA-UbVs labeling of USP5; type: cell-based
T1 construct: endogenous in cells; host or cells: Z138
T1 sequence (P45974 1-858): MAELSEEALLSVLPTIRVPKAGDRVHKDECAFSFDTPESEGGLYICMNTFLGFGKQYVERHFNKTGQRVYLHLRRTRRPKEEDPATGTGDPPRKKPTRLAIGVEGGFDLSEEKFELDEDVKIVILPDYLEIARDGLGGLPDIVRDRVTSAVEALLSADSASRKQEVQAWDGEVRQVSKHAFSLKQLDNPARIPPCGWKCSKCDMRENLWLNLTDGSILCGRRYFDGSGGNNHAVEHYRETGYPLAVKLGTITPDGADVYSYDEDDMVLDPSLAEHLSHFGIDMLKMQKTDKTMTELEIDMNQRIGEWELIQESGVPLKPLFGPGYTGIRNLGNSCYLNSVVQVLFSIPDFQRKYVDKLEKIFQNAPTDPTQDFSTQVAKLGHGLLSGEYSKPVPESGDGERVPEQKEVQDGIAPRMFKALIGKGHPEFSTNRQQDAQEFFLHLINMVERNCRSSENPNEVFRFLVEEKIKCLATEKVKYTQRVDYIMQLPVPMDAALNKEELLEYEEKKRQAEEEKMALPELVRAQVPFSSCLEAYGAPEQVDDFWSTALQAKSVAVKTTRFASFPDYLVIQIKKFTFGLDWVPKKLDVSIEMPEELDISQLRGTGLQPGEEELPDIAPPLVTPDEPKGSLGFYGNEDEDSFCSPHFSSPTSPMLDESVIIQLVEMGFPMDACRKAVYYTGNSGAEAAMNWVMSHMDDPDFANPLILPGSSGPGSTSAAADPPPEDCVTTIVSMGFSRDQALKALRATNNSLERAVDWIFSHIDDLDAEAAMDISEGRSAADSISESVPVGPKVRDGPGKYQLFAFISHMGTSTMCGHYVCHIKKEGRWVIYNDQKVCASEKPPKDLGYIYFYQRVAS
Procedure: To assay for changes in activity of cellular deubiquitinase enzymes, Z138 and HEK293 cells were lysed in DUB buffer (50 mM Tris pH 7.4, 5 mM MgCl2, 150 mM NaCl) for 10 min at 4° C. The lysates were centrifuged at 20,000 RFC for 10 min and the supernatant was used for DUB labeling. Equal amounts of lysate were incubated with 500 ng of HA-UbVs for 1 hr at room temperature, followed by boiling in reducing sample buffer and resolving by SDS-PAGE. After protein transfer to nitrocellulose membranes, HA immunoblotting was used to detect DUB labeling.
Hemagglutinin-tagged ubiquitin vinyl methyl sulfone (HA-UbVs) acts as a DUB suicide substrate, forming a covalent adduct with active DUB enzymes. Specific cellular DUBs can be identified by anti-HA blotting, as previously shown in various cell types. Changes in specific DUB activities are measurable by monitoring HA-labeling in lysates from control and treated cells. […]
USP9x was immunoprecipitated from Z138 cell lysates, prepared in DUB buffer and the beads were incubated with vehicle alone or WP1130 for 30 min. Ub-AMC (500 nM) was added to each reaction and fluorescence was monitored every minute for up to 30 minutes. The maximum fluorescence observed at the end of the linear phase of substrate cleavage in control and WP1130 treated DUBs was used as a gauge to estimate DUB activity and % inhibition. […]

Hsp70 = Hsp70 immunoblot; type: cell-based; details: CML cells
La Crosse virus (LaCV) = experiment: La Crosse virus plaque assay; details: human neurons (Be2-c), 5 μM, 30 min pre-treatment
[1] = tested on: Encephalomyocarditis virus; experiment: Encephalomyocarditis virus plaque assay; details: 5 μM, 30 min pre-treatment, listed as HWP1130

CCC[C@H](NC(=O)/C(C#N)=C/c1cccc(Br)n1)c1ccccc1 [WP1130]
Ub-AMC hydrolyzing activity of lysates from treated cells (cellular DUB activity; CML cells, WP1130 1-8 hours): limited effects
reduction of DUB activity (ubiquitin-AMC) (cellular DUB activity; Z138 cells, 5 μM WP1130 or 50 nM bortezomib, by 4 hours): ~50%
disassembly of K48-/K63-linked polyubiquitin chains by lysates (cellular DUB activity; lysates from cells treated 2 hr): limited disassembly
reduction in HA labeling of USP5 (USP5; HA-UbVs labeling upon incubation with compound): about 80%
HA-UbVS labeling of USPS (USP5; Z138 cells, 1, 5 or 10 μM, 1 hour): dose-dependent and time reduction in the labeling
Hsp70 protein levels (Hsp70): increased
Log inhibition by plaque assay (La Crosse virus (LaCV)): 2-2.5 log
Log inhibition by plaque assay (La Crosse virus (LaCV); listed as HWP1130): 2.5 log
Log inhibition by plaque assay [1]: 2 log
